Data: the NIST ThermoML archive (doi:10.1021/je800017j)
Numbers after ± are expanded uncertainties.

Assay: xn = mol fraction of the nth substance listed
Settings: Liquid, Vibrating tube method

C=CC [propene] + CC(C)O
Settings | mass density [kg/m3]
300.11 K, 966.7 kPa, x1 = 0.5201 | 644.49 ± 0.68
300.11 K, 1373.3 kPa, x1 = 0.5201 | 645.21 ± 0.68
300.11 K, 1835.6 kPa, x1 = 0.5201 | 645.98 ± 0.68
300.11 K, 2340.9 kPa, x1 = 0.5201 | 646.83 ± 0.68
300.11 K, 2812.4 kPa, x1 = 0.5201 | 647.62 ± 0.69
300.11 K, 3330.1 kPa, x1 = 0.5201 | 648.49 ± 0.69
300.11 K, 3817.5 kPa, x1 = 0.5201 | 649.27 ± 0.69
300.11 K, 4386.1 kPa, x1 = 0.5201 | 650.18 ± 0.69
300.11 K, 4873.7 kPa, x1 = 0.5201 | 650.95 ± 0.69
300.11 K, 5375.2 kPa, x1 = 0.5201 | 651.72 ± 0.7
300.11 K, 5888.8 kPa, x1 = 0.5201 | 652.52 ± 0.7
300.11 K, 6442 kPa, x1 = 0.5201 | 653.35 ± 0.7
300.11 K, 6942.8 kPa, x1 = 0.5201 | 654.09 ± 0.71
300.11 K, 7498.2 kPa, x1 = 0.5201 | 654.9 ± 0.71
300.11 K, 8104.7 kPa, x1 = 0.5201 | 655.77 ± 0.71
300.11 K, 8671.8 kPa, x1 = 0.5201 | 656.58 ± 0.71
300.11 K, 9226.7 kPa, x1 = 0.5201 | 657.35 ± 0.72
300.11 K, 9787 kPa, x1 = 0.5201 | 658.16 ± 0.72
300.12 K, 1068.5 kPa, x1 = 0.6478 | 608.06 ± 0.65
300.12 K, 1486.5 kPa, x1 = 0.6478 | 608.93 ± 0.65
300.12 K, 1740.6 kPa, x1 = 0.6478 | 609.48 ± 0.65
300.12 K, 2123.8 kPa, x1 = 0.6478 | 610.19 ± 0.65
300.12 K, 2620 kPa, x1 = 0.6478 | 611.17 ± 0.66
300.12 K, 2986.8 kPa, x1 = 0.6478 | 611.92 ± 0.66
300.12 K, 3495.3 kPa, x1 = 0.6478 | 612.85 ± 0.66
300.12 K, 3829 kPa, x1 = 0.6478 | 613.59 ± 0.66
300.12 K, 4193.5 kPa, x1 = 0.6478 | 614.26 ± 0.66
300.12 K, 4542.8 kPa, x1 = 0.6478 | 614.93 ± 0.67
300.12 K, 4905.4 kPa, x1 = 0.6478 | 615.61 ± 0.67
300.12 K, 5263.7 kPa, x1 = 0.6478 | 616.27 ± 0.67
300.12 K, 5634.1 kPa, x1 = 0.6478 | 616.94 ± 0.67
300.12 K, 6011.3 kPa, x1 = 0.6478 | 617.61 ± 0.68
300.12 K, 6395.3 kPa, x1 = 0.6478 | 618.28 ± 0.68
300.12 K, 6788.6 kPa, x1 = 0.6478 | 618.96 ± 0.68
300.12 K, 7165.4 kPa, x1 = 0.6478 | 619.61 ± 0.68
300.12 K, 7558.1 kPa, x1 = 0.6478 | 620.28 ± 0.68
300.12 K, 7960.1 kPa, x1 = 0.6478 | 620.96 ± 0.69
300.12 K, 8377.2 kPa, x1 = 0.6478 | 621.66 ± 0.69
300.12 K, 8785.5 kPa, x1 = 0.6478 | 622.34 ± 0.69
300.12 K, 9234.2 kPa, x1 = 0.6478 | 623.05 ± 0.7
300.12 K, 9682.1 kPa, x1 = 0.6478 | 623.79 ± 0.7
300.14 K, 529.4 kPa, x1 = 0.2011 | 731.63 ± 0.75
300.14 K, 1051.3 kPa, x1 = 0.2011 | 732.17 ± 0.75
300.14 K, 1483.6 kPa, x1 = 0.2011 | 732.72 ± 0.76
300.14 K, 1954.4 kPa, x1 = 0.2011 | 733.24 ± 0.76
300.14 K, 2384 kPa, x1 = 0.2011 | 733.72 ± 0.76
300.14 K, 2798.6 kPa, x1 = 0.2011 | 734.18 ± 0.76
300.14 K, 3273.1 kPa, x1 = 0.2011 | 734.68 ± 0.76
300.14 K, 3740.2 kPa, x1 = 0.2011 | 735.18 ± 0.76
300.14 K, 4186.3 kPa, x1 = 0.2011 | 735.68 ± 0.76
300.14 K, 4728.6 kPa, x1 = 0.2011 | 736.23 ± 0.76
300.14 K, 5235.6 kPa, x1 = 0.2011 | 736.78 ± 0.77
300.14 K, 5767.3 kPa, x1 = 0.2011 | 737.3 ± 0.77
300.14 K, 6274.7 kPa, x1 = 0.2011 | 737.83 ± 0.77
300.14 K, 6832.5 kPa, x1 = 0.2011 | 738.41 ± 0.77
300.14 K, 7291.5 kPa, x1 = 0.2011 | 738.89 ± 0.77
300.14 K, 7811.8 kPa, x1 = 0.2011 | 739.42 ± 0.77
300.14 K, 8296.6 kPa, x1 = 0.2011 | 739.9 ± 0.77
300.14 K, 8810.3 kPa, x1 = 0.2011 | 740.41 ± 0.78
300.14 K, 9337.7 kPa, x1 = 0.2011 | 740.91 ± 0.78
300.14 K, 9886.4 kPa, x1 = 0.2011 | 741.45 ± 0.78
325.05 K, 1613.1 kPa, x1 = 0.5201 | 613.41 ± 0.65
325.05 K, 1977.7 kPa, x1 = 0.5201 | 614.26 ± 0.66
325.05 K, 2359 kPa, x1 = 0.5201 | 615.15 ± 0.66
325.05 K, 2717.2 kPa, x1 = 0.5201 | 615.98 ± 0.66
325.05 K, 3167.8 kPa, x1 = 0.5201 | 616.93 ± 0.66
325.05 K, 3506.1 kPa, x1 = 0.5201 | 617.74 ± 0.67
325.05 K, 3888.8 kPa, x1 = 0.5201 | 618.59 ± 0.67
325.05 K, 4321.6 kPa, x1 = 0.5201 | 619.52 ± 0.67
325.05 K, 4676.7 kPa, x1 = 0.5201 | 620.29 ± 0.67
325.05 K, 5061.4 kPa, x1 = 0.5201 | 621.12 ± 0.67
325.05 K, 5471.8 kPa, x1 = 0.5201 | 621.94 ± 0.68
325.05 K, 5880.1 kPa, x1 = 0.5201 | 622.78 ± 0.68
325.05 K, 6293.6 kPa, x1 = 0.5201 | 623.65 ± 0.68
325.05 K, 6704.3 kPa, x1 = 0.5201 | 624.42 ± 0.68
325.05 K, 7171.7 kPa, x1 = 0.5201 | 625.34 ± 0.69
325.05 K, 7597.4 kPa, x1 = 0.5201 | 626.18 ± 0.69
325.05 K, 8037.5 kPa, x1 = 0.5201 | 627.02 ± 0.69
325.05 K, 8556.5 kPa, x1 = 0.5201 | 628.02 ± 0.7
325.05 K, 9078.1 kPa, x1 = 0.5201 | 628.97 ± 0.7
325.05 K, 9631.3 kPa, x1 = 0.5201 | 629.98 ± 0.7
325.09 K, 810.9 kPa, x1 = 0.2011 | 703.07 ± 0.73
325.09 K, 1218.9 kPa, x1 = 0.2011 | 703.59 ± 0.73
325.09 K, 1608.7 kPa, x1 = 0.2011 | 704.14 ± 0.73
325.09 K, 2001.8 kPa, x1 = 0.2011 | 704.7 ± 0.73
325.09 K, 2383.7 kPa, x1 = 0.2011 | 705.3 ± 0.73
325.09 K, 2827.6 kPa, x1 = 0.2011 | 705.86 ± 0.73
325.09 K, 3159.2 kPa, x1 = 0.2011 | 706.38 ± 0.74
325.09 K, 3707.9 kPa, x1 = 0.2011 | 707.07 ± 0.74
325.09 K, 4123.6 kPa, x1 = 0.2011 | 707.68 ± 0.74
325.09 K, 4528.5 kPa, x1 = 0.2011 | 708.19 ± 0.74
325.09 K, 4925.3 kPa, x1 = 0.2011 | 708.73 ± 0.74

Settings | mass density [kg/m3]
300.11 K, x1 = 0.5201 | 644.42 ± 0.67
300.12 K, x1 = 0.6478 | 607.97 ± 0.64
300.14 K, x1 = 0.2011 | 731.63 ± 0.75
325.05 K, x1 = 0.5201 | 613.29 ± 0.65
